Measured values published in patent US7375135B2, “Fatty acid derivatives; preparation and uses thereof” (Genfit, priority 2001, dated 2008).

Assays:
[1] = Plasma cholesterol and triglycerides in Zucker rats; assay type: in vivo, rat
Source text: (§1) Male C57BL/6 mice (Charles River, L'Arbresle, France) aged 6 weeks at the start of the experiments were randomly divided into groups of 6 animals such that body weight distribution was uniform. Mice were given a low-fat diet (UAR AO4), a high-fat diet (29% (m/m) coconut oil) or the same enriched diet supplemented with the test compounds. Obese male Zucker rats (fa/fa) or non obese rats (fa/+) aged 5 or 21 weeks (Charles River, L'Arbresle, France) were divided into groups of 8 animals selected such that the distribution of plasma cholesterol and triglyceride levels was uniform, and maintained on a standard diet. Animals were housed in a 12 hour light/dark cycle at a constant temperature of 20° C.±3° C. Animals had access to food and water ad libitum. Food intake and weight increase were recorded. The test compounds were suspended in carboxymethylcellulose and administered by gastric lavage at the indicated doses, once a day for 15 days. At the end of treatment, some animals underwent a glucose tolerance test as described hereinbelow. At the end of the experiment the other animals were weighed and sacrificed under anesthesia after a 5 hour fast. Blood was collected on EDTA. Plasma was prepared by centrifugation at 3000 rpm for 20 minutes. Liver samples were removed and stored frozen in liquid nitrogen for subsequent analysis.
Plasma lipid concentrations (total cholesterol and triglycerides) were determined by a colorimetric assay (Bio-Mérieux, Marcy l'Etoile, France) according to the supplier's instructions.

[2] = Glucose tolerance test in Zucker rats; assay type: in vivo, rat; conditions: 300 mg/kg/d
Source text: as §1
Insulinemia was assayed on serum or plasma collected on EDTA. […]

[3] = tested on: hepatic expression of ACO, CPT-I, CPT-II, Apo AI, Apo CIII genes; assay: Hepatic gene expression (RT-PCR) in treated Sprague-Dawley rats; assay type: in vivo, rat; conditions: 300 mg/kg/d
Description: (§2) Sprague-Dawley or Wistar rats weighing 200 to 230 g (Charles River, L'Arbresle, France) were housed in a 12-hour light/dark cycle at a constant temperature of 20±3° C. After a 1-week acclimatization period, rats were weighed and distributed into groups of 8 animals selected such that the distribution of plasma cholesterol and triglyceride levels was uniform. The test compounds were suspended in carboxymethylcellulose and administered by gastric lavage at the indicated doses, once a day for 15 days. Animals had access to food and water ad libitum. At the end of the experiments, animals were weighed and sacrificed under anesthesia after a 5-hour fast. Blood was collected on EDTA. Plasma was isolated by centrifugation at 3000 rpm for 20 minutes. Liver samples were removed and stored frozen in liquid nitrogen until further analysis.
Total RNA was isolated from the liver fragments by extraction with a mixture of guanidine thiocyanate/phenol acid/chloroform as previously described (Raspé et al., J. Lipid Res. 40, 2099-2110, 1999). Messenger RNA was quantified by semi-quantitative or quantitative RT-PCR with the Light Cycler Fast Start DNA Master Sybr Green I kit (Hoffman-La Roche, Basel, Switzerland) on a Light Cycler System (Hoffman-La Roche, Basel, Switzerland). Primer pairs specific for the ACO, Apo CIII, Apo AI, CPT-I and CPT-II genes were used as probes. Primer pairs specific for the 36B4, β-actin and GAPDH genes were used as control probes (see table I).

ABCA1 gene expression = assay: ABCA1 and LXRα gene expression in human macrophages; assay type: cell-based; conditions: compound solubilized according to example 6, dose-dependent, FIG. 12
Description: THP-1 monocytes (ATCC, Rockville, Md., USA) were placed in 6-well culture dishes in the presence of PMA (phorbol myristate acetate) and fetal calf serum and incubated at 37° C. for 48 hours to allow them to differentiate to macrophages.
To obtain primary macrophages, mononuclear cells were isolated from human blood as previously described (Chinetti et al. Nat. Medecine 7(1), 53-58, 2001), placed in 6-well culture dishes and grown for 10 days in the presence of human serum to enable adherence and differentiation of the primary monocytes to macrophages.
Treatment with the different compounds was carried out for 48 hours in medium without human or fetal calf serum but supplemented with 1% Nutridoma HU serum (Boehringer).
Total RNA was extracted from treated macrophages with the mini RNeasy kit (Qiagen, Hilden, Germany) according to the supplier's instructions, assayed by spectrometry and quantified by quantitative RT-PCR with the Light Cycler Fast DNA Master Green I kit (Hoffman-La Riche, Basel, Switzerland) on a Light Cycler System (Hoffman-La Riche, Basel, Switzerland). Primer pairs specific for the ABCA1 and LXRα genes were used as probes.

[4] = Plasma lipids and their distribution in lipoparticles in Sprague-Dawley rats; assay type: in vivo, rat; conditions: 300 mg/kg/d
Description: as §2
(§3) Lipid concentrations in plasma (total cholesterol and free cholesterol, triglycerides and phospholipids) were determined by a colorimetric assay (Bio-Mérieux, Marcy I'Etoile, France) according to the supplier's instructions. Plasma concentrations of apolipoproteins AII, AI and CIII were determined as previously described (Raspé et al., J. Lipid Res. 40, 2099-2110, 1999, Asset G et al., Lipids, 34, 39-44, 1999).
To separate the lipoproteins according to size, 300 μl of plasma were loaded on a Sepharose 6HR 10/30 column (Pharmacia, Uppsala, Sweden) and eluted at a constant flow rate (0.2 ml/minute) in PBS (pH 7.2). Optical density of the eluent was recorded at 280 nm. 0.3 ml fractions were collected. Lipid concentrations in the different fractions were determined by a colorimetric assay (Bio-Mérieux, Marcy I'Etoile, France) according to the supplier's instructions.

PPARα = PPARα activation in vitro in HepG2 cells (Gal4 DNA binding domain / PPARα ligand binding domain chimera); assay type: cell-based; conditions: dose-dependent, FIG. 11
Description: Plasmids pG5TkpGL3, pGal4-hPPARα, pGal4-hPPARγ and pGal4-φ have been described previously (Raspé et al., J. Lipid Res. 40, 2099-2110, 1999). The pGal4-mPPARα and pGal4-hPPARδ constructs were obtained by cloning PCR-amplified DNA fragments corresponding to the DEF domains of the mouse PPARα and human PPARδ nuclear receptors into the pGal4-φ vector.
HepG2 and RK13 cells were from ECACC (Porton Down, UK) and were grown in DMEM medium supplemented with 10% (VN) fetal calf serum, 100 U/ml penicillin (Gibco, Paisley, UK) and 2 mM L-glutamine (Gibco, Paisley, UK). The culture medium was replaced every two days. Cells were kept at 37° C. in a humidified 5% CO2/95% air atmosphere.
HepG2 and RK13 cells seeded in 24-well culture dishes at a rate of 10^5 cells/well for HepG2 cells and 5×10^4 cells/well for RK13 cells were transfected for 2 hours with the reporter plasmid pG5TkpGL3 (10 ng/well), the expression vectors pGal4-φ, pGal4-mPPARα, pGal4-hPPARα, pGal4-hPPARγ, pGal4-hPPARδ (10 ng/well) and the transfection efficiency control vector pRL-null (Promega Madison, Wis., USA) (20 ng/well) according to the protocol previously described (Raspé et al., J. Lipid Res. 40, 2099-2110, 1999) and incubated for 36 hours with the test compounds. […]

[5] = Plasma insulin and glucose balance in Zucker rats; assay type: in vivo, rat; conditions: 300 mg/kg/d
Source text: as §1
Blood glucose was determined by a colorimetric enzymatic assay (Sigma Aldrich, St Louis, Mo., USA).
Insulinemia was assayed on serum or plasma collected on EDTA.

[6] = Plasma cholesterol and triglycerides in Wistar rats; assay type: in vivo, rat; conditions: 300 mg/kg/d, after 14 days of treatment
Description: as §2, with “The test compounds were suspended in carboxymethylcellulose and administered by gastric lavage at the indicated doses, once a day for 15 days.” left out
as §3

[7] = tested on: hepatic expression of the ACO gene; assay: Hepatic ACO gene expression in treated Wistar rats; assay type: in vivo, rat; conditions: 300 mg/kg/d, FIG. 9C
Description: as §2
Total RNA was isolated from the liver fragments by extraction with a mixture of guanidine thiocyanate/phenol acid/chloroform as previously described (Raspé et al., J. Lipid Res. 40, 2099-2110, 1999). Messenger RNA was quantified by semi-quantitative or quantitative RT-PCR with the Light Cycler Fast Start DNA Master Sybr Green I kit (Hoffman-La Roche, Basel, Switzerland) on a Light Cycler System (Hoffman-La Roche, Basel, Switzerland). Primer pairs specific for the ACO, Apo CIII, Apo AI, CPT-I and CPT-II genes were used as probes. […]

CCCCCCCCCCCCCCSCC(=O)OCC(COC(=O)CSCCCCCCCCCCCCCC)OC(=O)CSCCCCCCCCCCCCCC [Example 4a, 1,2,3-tritetradecylthioacetylglycerol]
total plasma cholesterol (gradual increase versus control group) ([1]; 300 mg/kg/d, FIG. 6A): said increase was slower | plasma triglycerides (gradual increase versus control group) ([1]; 300 mg/kg/d, FIG. 6B): said increase was markedly slower | plasma triglyceride levels, dose-effect relation ([1]; doses of 0 to 600 mg/kg/d, FIG. 10): gradual dose-dependent decrease in triglyceride levels | plasma insulin levels during a glucose tolerance test ([2]; FIG. 8): used less insulin in response to the glucose injection | insulin sensitivity ([2]; concluded from glucose tolerance test): increase in insulin sensitivity | hepatic expression of ACO ([3]; FIG. 5A): strong activation of hepatic expression of ACO | hepatic expression of CPT-I ([3]; FIG. 5A): smaller increase in the expression of the genes CPT-I and CPT-II | hepatic expression of CPT-II ([3]; FIG. 5A): smaller increase in the expression of the genes CPT-I and CPT-II | hepatic Apo AI expression ([3]; FIG. 5B): slight decrease in hepatic Apo AI expression | hepatic Apo CIII expression ([3]; FIG. 5B): more marked decrease in Apo CIII expression | ABCA1 gene expression (ABCA1 gene expression): very strong activation of ABCA1 gene expression | cholesterol distribution in lipoparticles (size exclusion chromatography) ([4]; FIG. 2A): decrease in cholesterol in the different lipoparticle classes | total plasma cholesterol levels ([4]; FIG. 2B): reduction of total plasma cholesterol levels | triglyceride distribution in lipoparticles (size exclusion chromatography) ([4]; FIG. 3A): decrease in triglycerides in this lipoparticle class | plasma triglyceride levels ([4]; FIG. 3B): reduction of plasma triglyceride levels | phospholipid distribution in lipoparticles (size exclusion chromatography) ([4]; FIG. 4A): decrease in phospholipids in the different lipoparticle classes | total plasma phospholipid levels ([4]; FIG. 4B): reduction of total plasma phospholipid levels | PPARα activation in vitro (PPARα): very strong activation of the PPARα nuclear receptor | plasma glucose levels ([5]; FIG. 7): glucose levels were equivalent in the two groups | insulin sensitivity ([5]; concluded from insulin and glucose levels): increased insulin sensitivity | plasma insulin levels (gradual compensatory increase versus control group) ([5]; especially after 14 days, FIG. 7): said increase was slower

CCCCCCCCCCCCCCCC(=O)OCC(COC(=O)CCCCCCCCCCCCCCC)OC(=O)CSCCCCCCCCCCCCCC [Example 4g, 1,3-dipalmitoyl-2-tetradecylthioacetylglycerol]
plasma cholesterol ([6]; FIG. 9A): decrease in circulating cholesterol and triglyceride levels | plasma triglycerides ([6]; FIG. 9B): decrease in circulating cholesterol and triglyceride levels | hepatic expression of the ACO gene [7]: marked activation of hepatic expression of the ACO gene
